Laboratory results reported in patent US20060134767A1, “Mitotic kinesin binding site” (priority 2002, published 2006).

Biological target: T1, KSP(367H) (Homo sapiens, UniProt P52732)
T1 construct: Add 18.75 μl of 4 μM stock nucleotide-free KSP(367H)
T1 sequence (P52732 1-367 limits assumed): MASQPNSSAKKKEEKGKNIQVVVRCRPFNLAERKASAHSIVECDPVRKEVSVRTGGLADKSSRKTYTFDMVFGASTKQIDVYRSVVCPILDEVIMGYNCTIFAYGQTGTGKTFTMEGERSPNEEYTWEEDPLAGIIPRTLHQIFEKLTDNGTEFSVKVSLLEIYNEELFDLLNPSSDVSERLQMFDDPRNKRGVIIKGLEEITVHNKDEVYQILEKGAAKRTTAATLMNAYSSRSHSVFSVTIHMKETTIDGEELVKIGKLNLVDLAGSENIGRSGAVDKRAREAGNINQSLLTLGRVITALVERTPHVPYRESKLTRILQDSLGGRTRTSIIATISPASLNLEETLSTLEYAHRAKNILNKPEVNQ
Experiment: Fluorescence of Trp127 of KSP -/+ inhibitors (in vitro binding assay for the novel KSP binding site)
Protocol: The binding of a ligand to the novel binding site of the instant invention and the formation of the novel binding pocket as a result can als6 be indirectly assessed by spectroscopically determining the shift in the fluorescence of the amino acid 127 tryptophan residue. Thus it has been discovered that the fluorescent emission of Trp127 is modulated when KSP is treated with one of the inhibitors described above in the presence of a nucleotide or nucleotides.
A further embodiment of the instant invention is an in vitro assay for the determination of binding of a test compound to the novel KSP binding site described herein. The assay comprises the steps of: • 1. contacting KSP with the test compound and a nucleotide and measuring the fluorescence of the mixture at the peak emission wavelength for Trp127 in KSP; • 2. contacting KSP with a nucleotide and measuring the fluorescence of the mixture at the peak emission wavelength for Trp127 in KSP; and • 3. comparing the fluorescence of the mixture of KSP, the test compound and the nucleotide with the fluorescence of the mixture of KSP with the nucleotide alone.
In another embodiment of the in vitro fluorescence assay the nucleotide is selected from ADP and AMPPNP (a non-hydrolysable analog of ATP, adenosine 5′-(β,γ-imido)triphosphate tetralithium salt hydrate).
• 2× kinesin buffer: 160 mM K-Hepes, 2 mM MgCl2, 2 mM EGTA, 2 mM DTT (added fresh daily), and 100 mM KCl, pH 6.8. • Nucleotide: nucleotide is resuspended to 200 mM in 50 mM K-Hepes (pH 6.8). • Nucleotide is diluted 1:1 with 200 MM MgCl2 to a stock concentration of 100 mM of 1:1 nucleotide:MgCl2. • Cuvette volume=300 μl Methods • 1) Add 281 μl of 1× kinesin buffer, ±nucleotide, and H2O (Nucleotide=none, 1 mM AMPPNP, or 1 mM ADP (final concentration)). • 2) Add 18.75 μl of 4 μM stock nucleotide-free KSP(367H). • 3) Add compound sequentially from DMSO stock (with all the volume of all additions ≦0.6 μl). • 4) Measure fluorescence after each addition (starting with buffer only). • 5) Example titration for Compound 8-1 with KSP(367H)ADP: 281 μl of 1× kinesin buffer+1 mM ADP: • add 250 nM KSP (18.75 μl of 4 uM nucleotide-free stock) • add 1 nM Compound 8-1 (1 nMf) (addition of 0.3 μl of 0.001 mM stock) • add 2 nM Compound 8-1 (3 nMf) (addition of 0.6 μl of 0.001 mM stock) • add 4 nM Compound 8-1 (7 nMf) (addition of 0.12 μl of 0.01 mM stock) • add 3 nM Compound 8-1 (10 nMf) (addition of 0.09 μl of 0.01 mM stock) • add 20 nM Compound 8-1 (30 nMf) (addition of 0.6 μl of 0.01 mM stock) • add 40 nM Compound 8-1 (70 nMf) (addition of 0.12 μl of 0.1 mM stock) • add 30 nM Compound 8-1 (100 nMf) (addition of 0.09 μl of 0.1 mM stock) • add 200 nM Compound 8-1 (300 nMf) (addition of 0.6 μl of 0.1 mM stock) • add 400 nM Compound 8-1 (700 nMf) (addition of 0.12 μl of 1 mM stock) • add 300 nM Compound 8-1 (1000 nMf) (addition of 0.09 μl of 1 mM stock) • add 2000 nM Compound 8-1 (3000 nMf) (addition of 0.6 μl of 1 mM stock). • 6) After each addition, measure steady-state fluorescence under the following conditions: • λex=[…], λem=342-346 nm, band width=3 nm ex/3 nm em, wavelength increment=0.5 nm, integration time=2 s. • 7) Repeat the same titration series: • in the absence of KSP (to determine compound-related background), and in the absence of KSP, but in the presence of 1 μM L-tryptophan (to determine compound-related effects on the amino acid itself). Calculations
At the peak emission wavelength for W127 in KSP(367H) (=344 nm) measure the compound emission in kinesin buffer as a function of [compound]; measure fluorescence of L-tryptophan as a function of [compound]; measure fluorescence of KSP(367H) as a function of [compound]; correct KSP(367H) fluorescence for its decrease over time (due to losses of protein to the cuvette); subtract compound emission from L-tryptophan emission; subtract compound emission from KSP(367H) emission. […]

[1] = in the absence of the nucleotide
[2] = in the presence of ADP or AMPPNP

Row | SMILES | fluorescence of Trp127 [1] | fluorescence of Trp127 [2]
1 | CCOC(=O)C1=C(C)NC(=S)NC1c1cccc(O)c1 (single isomer, unassigned; (+)) [Compound 5-2b, (+)-4-(3-Hydroxyphenyl)-6-methyl-2-thioxo-1,2,3,4-tetrahydro-4H-pyrimidin-5-carboxylic acid ethyl ester, reference compound] | does not cause a decrease | dose dependent decrease
2 | CC(=O)N1N=C(c2ccccc2Cl)CC1c1cccc(O)c1 (stereo not drawn) [Compound 1-7, 3-[1-acetyl-3-(2-chlorophenyl)-4,5-dihydro-1H-pyrazol-5-yl]phenol] | does not cause a decrease | dose dependent decrease
3 | CCC(c1nc2sccc2c(=O)n1Cc1ccccc1)N(CCN(C)C)Cc1ccc(Br)cc1 (stereo not drawn) [Compound 8-1, 3-benzyl-2-(1-{(4-bromobenzyl)[2-(dimethylamino)ethyl]amino}propyl)thieno[2,3-d]pyrimidin-4(3H)-one] | does not cause a decrease | dose dependent decrease
